# Laboratory results as given in patent publication US20040142317A1, “Use of amino acid transporter atbo,+ as a delivery system for drugs and prodrugs” (priority 2003, published 2004).
# Where “and” joins values, the source holds several entries; their conditions need not be identical. Equal values may be shown once.
# Experiments:
# [1] = target: T1, mouse ATB^0,+ (Mus musculus, UniProt Q9JMA9); settings: for Current in X. laevis oocytes (nA), L-isomer: L-amino acid 1 mM; for Current in X. laevis oocytes (nA), L-isomer / Current in X. laevis oocytes (nA), D-isomer: NaCl pH 7.5; for inward current in the absence of Cl− (sodium gluconate) / inward current in the absence of Na+ (NMDG chloride) / Current in X. laevis oocytes: compound 1 mM; for Current in X. laevis oocytes: NaCl medium pH 7.5, voltage clamp; for K0.5 (concentration inducing half-maximal current; Michaelis-Menten constant): oocytes, membrane potential −50 mV; for Current in X. laevis oocytes (nA), D-isomer: D-amino acid 1 mM
# T1 sequence (Q9JMA9 1-638): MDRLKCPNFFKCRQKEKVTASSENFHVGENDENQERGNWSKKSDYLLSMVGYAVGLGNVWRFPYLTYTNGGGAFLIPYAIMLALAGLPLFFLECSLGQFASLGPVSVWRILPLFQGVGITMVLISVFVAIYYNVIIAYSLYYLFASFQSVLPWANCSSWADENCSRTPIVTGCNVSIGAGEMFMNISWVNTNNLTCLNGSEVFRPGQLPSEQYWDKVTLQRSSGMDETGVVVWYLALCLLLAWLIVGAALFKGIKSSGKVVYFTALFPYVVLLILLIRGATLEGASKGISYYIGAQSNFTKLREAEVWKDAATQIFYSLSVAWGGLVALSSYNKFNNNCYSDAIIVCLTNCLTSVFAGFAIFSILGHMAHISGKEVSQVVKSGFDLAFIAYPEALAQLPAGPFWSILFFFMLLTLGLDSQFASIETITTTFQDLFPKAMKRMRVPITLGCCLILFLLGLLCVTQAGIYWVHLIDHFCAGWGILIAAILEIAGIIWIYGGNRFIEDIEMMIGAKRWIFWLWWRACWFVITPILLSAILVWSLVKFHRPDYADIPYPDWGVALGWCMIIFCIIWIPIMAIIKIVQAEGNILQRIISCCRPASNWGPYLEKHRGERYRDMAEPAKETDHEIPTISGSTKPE
# [2] = target: T1, mouse ATB^0,+
# [3] = target: T1, mouse ATB^0,+; assay: Transport of radiolabeled substrates in HRPE cells expressing cloned mouse ATB0,+; type: cell-based; settings: HRPE cells
# [4] = target: T1, mouse ATB^0,+; settings: for effect on ATB^0,+-mediated glycine transport (in words): glycine 10 μM, HRPE cells
# [5] = target: T1, mouse ATB^0,+; assay: Inhibition of ATB0,+-specific [3H]-L-NNA transport by amino acids in HRPE cells; type: cell-based; settings: amino acids 5 mM; [3H]-L-NNA 10 μM
structure (smiles),measurement,setting,value
"CC(C)[C@H](N)C(=O)O [L-Valine, Valine]","Current in X. laevis oocytes (nA), L-isomer",[1],310 ± 24 nA
CC(=N)NCCCC[C@H](N)C(=O)O [L-NIL],inward current in the absence of Cl− (sodium gluconate),[1],~10 nA
same,inward current in the absence of Na+ (NMDG chloride),[1],no measurable inward current
same,Current in X. laevis oocytes,[1],89 ± 18 nA
same,K0.5 (concentration inducing half-maximal current; Michaelis-Menten constant),[1],2.72 ± 0.29 mM
CC[C@H](C)[C@H](N)C(=O)O [Isoleucine],"Current in X. laevis oocytes (nA), L-isomer",[1],117 ± 16 nA
"N=C(NCCC[C@H](N)C(=O)O)N[N+](=O)[O-] [L-NNA, N^ω-nitro-L-arginine]",activity,[2],21%
same,"Michaelis-Menten constant (Kt) of transport via mouse ATB^0,+",[3]; radiolabeled substrate,0.75 ± 0.10 mM
same,"transport in ATB^0,+ cDNA-transfected cells compared to vector-transfected cells",[3]; radiolabeled substrate,4 fold
same,IC50,[4],560 ± 40 µM
same,Current in X. laevis oocytes,[1],200 ± 92 nA
"N=C(N)NCCC[C@H](N)C(=O)O [D-Arginine, Arginine]","Current in X. laevis oocytes (nA), D-isomer",[1],6 ± 1 nA
"C[C@@H](N)C(=O)O [D-Alanine, D-alanine]","Current in X. laevis oocytes (nA), D-isomer",[1],402 ± 39 nA
"CSCC[C@H](N)C(=O)O [L-Methionine, Methionine]","Current in X. laevis oocytes (nA), L-isomer",[1],278 ± 26 nA
N[C@@H](CO)C(=O)O [Serine],"inhibition of ATB^0,+-specific L-NNA transport",[5],inhibition
same,"Current in X. laevis oocytes (nA), L-isomer",[1],470 ± 42 nA
N=C(N)NOCC[C@H](N)C(=O)O [L-Canavanine],activity,[2],24%
same,inhibition,[2],75%
same,Current in X. laevis oocytes,[1],269 ± 73 nA
NCC(=O)O [Glycine],"inhibition of ATB^0,+-specific L-NNA transport",[5],inhibition
same,Hill coefficient for Na+ activation of substrate transport,[3],2.0±0.1
same,K0.5 for Cl− in substrate transport,[3],18 ± 8 mM
same,K0.5 for Na+ in substrate transport,[3],25 ± 1 mM
same,"Michaelis-Menten constant (Kt) of transport via mouse ATB^0,+",[3],0.21 ± 0.018 mM
same,"transport in ATB^0,+ cDNA-transfected cells compared to vector-transfected cells",[3]; radiolabeled substrate,38 fold and 30 fold
COC(=O)[C@@H](N)CCCNC(=N)N[N+](=O)[O-] [L-NAME],Current in X. laevis oocytes,[1],11 ± 2 nA
NC(=NCCC[C@H](N)C(=O)OCc1ccccc1)N[N+](=O)[O-] [L-NABE],Current in X. laevis oocytes,[1],16 ± 2 nA
"CC(C)[C@H](N)C(=O)O [D-Valine, Valine]","Current in X. laevis oocytes (nA), D-isomer",[1],4 ± 3 nA
"NCCCC(=O)O [γ-Aminobutyrate, γ-aminobutyrate]","effect on ATB^0,+-mediated glycine transport (in words)",[4],little or no effect
"N[C@H](Cc1c[nH]cn1)C(=O)O [D-Histidine, D-histidine]","Current in X. laevis oocytes (nA), D-isomer",[1],29 ± 6 nA
"CSCC[C@@H](N)C(=O)O [D-Methionine, D-methionine]","Current in X. laevis oocytes (nA), D-isomer",[1],213 ± 15 nA
"NC(=O)CC[C@H](N)C(=O)O [Glutamine, L-Glutamine]","Current in X. laevis oocytes (nA), L-isomer",[1],453 ± 53 nA
"CC[C@H](C)[C@H](N)C(=O)O [D-Isoleucine, Isoleucine]","Current in X. laevis oocytes (nA), D-isomer",[1],4 ± 4 nA
NC(=S)NCCC[C@H](N)C(=O)O [L-TC],Current in X. laevis oocytes,[1],497 ± 104 nA
"NCCCC[C@H](N)C(=O)O [D-Lysine, Lysine]","Current in X. laevis oocytes (nA), D-isomer",[1],9 ± 9 nA
"C[C@H](O)[C@@H](N)C(=O)O [D-Threonine, D-threonine]","Current in X. laevis oocytes (nA), D-isomer",[1],41 ± 5 nA
"N[C@H](Cc1ccccc1)C(=O)O [D-Phenylalanine, D-phenylalanine]","Current in X. laevis oocytes (nA), D-isomer",[1],24 ± 24 nA
C[N+](C)(C)CC(=O)O [betaine],"effect on ATB^0,+-mediated glycine transport (in words)",[4],little or no effect
CNC(C)(C)C(=O)O [MeAIB],"inhibition of ATB^0,+-specific L-NNA transport",[5],did not inhibit
CNC(=N)NCCC[C@H](N)C(=O)O [L-NMMA],activity,[2],36%
same,Current in X. laevis oocytes,[1],411 ± 76 nA
CC(C)C[C@H](N)C(=O)O [Leucine],"Current in X. laevis oocytes (nA), L-isomer",[1],187 ± 14 nA
CSC(N)=NCCC[C@H](N)C(=O)O [L-MTC],inward current in the absence of Cl− (sodium gluconate),[1],no measurable currents
same,inward current in the absence of Na+ (NMDG chloride),[1],no measurable currents
same,Current in X. laevis oocytes,[1],116±34 nA and 118 ± 34 nA
same,K0.5 (concentration inducing half-maximal current; Michaelis-Menten constant),[1],1.36 ± 0.08 mM
C[C@@H](O)[C@H](N)C(=O)O [Threonine],"Current in X. laevis oocytes (nA), L-isomer",[1],233 ± 12 nA
"CC(C)[C@H](N)C(=O)OCCOCn1cnc2c(=O)[nH]c(N)nc21 [valacyclovir, L-valine α-ester of acyclovir]","transport in ATB^0,+-expressing cells versus vector-transfected cells (in words)",[3]; [14C]phenylglycine 10 μM or [8-3H]-valacyclovir 1.25 μM,three times higher
NCCCC[C@H](N)C(=O)O [Lysine],"Current in X. laevis oocytes (nA), L-isomer",[1],321 ± 34 nA
same,Current in X. laevis oocytes,[1],545 ± 95 nA
CCNC(=N)NCCC[C@H](N)C(=O)O [L-NMEA],Current in X. laevis oocytes,[1],138 ± 16 nA
N[C@@H](CCC(=O)OCc1ccccc1)C(=O)O [L-Glutamate γ-benzyl ester],IC50,[4],156 ± 12 µM
"N[C@H](Cc1c[nH]c2ccccc12)C(=O)O [D-Tryptophan, D-tryptophan]","Current in X. laevis oocytes (nA), D-isomer",[1],157 ± 23 nA
CC(=N)NCCC[C@H](N)C(=O)O [L-NIO],Current in X. laevis oocytes,[1],71 ± 16 nA
same,K0.5 (concentration inducing half-maximal current; Michaelis-Menten constant),[1],2.24 ± 0.35 mM
N[C@@H](Cc1c[nH]c2ccccc12)C(=O)O [Tryptophan],"Current in X. laevis oocytes (nA), L-isomer",[1],112 ± 4 nA
"NC(=O)C[C@H](N)C(=O)O [Asparagine, L-Asparagine]","Current in X. laevis oocytes (nA), L-isomer",[1],394 ± 67 nA
NCCC[C@H](N)C(=O)O [Ornithine],Current in X. laevis oocytes,[1],131 ± 27 nA
N[C@@H](CC(=O)OCc1ccccc1)C(=O)O [L-Aspartate β-benzyl ester],IC50,[4],70 ± 8 µM
same,potency relative to benzyl ester of glutamate,[4]; from IC50 values,about 2 fold
CN(C)C(N)=NCCC[C@H](N)C(=O)O [L-NDMA],Current in X. laevis oocytes,[1],85 ± 15 nA
"NC(=O)CC[C@@H](N)C(=O)O [D-Glutamine, D-glutamine]","Current in X. laevis oocytes (nA), D-isomer",[1],16 ± 11 nA
"NC(=O)C[C@H](N)C(=O)O [D-Asparagine, Asparagine]","Current in X. laevis oocytes (nA), D-isomer",[1],3 ± 2 nA
N=C(N)NCCC[C@H](N)C(=O)O [Arginine],activity,[2],30%
same,"inhibition of ATB^0,+-specific L-NNA transport",[5],inhibition
same,"Current in X. laevis oocytes (nA), L-isomer",[1],339 ± 35 nA
same,inward current in the absence of Cl− (sodium gluconate),[1],No measurable current
same,inward current in the absence of Na+ (NMDG chloride),[1],No measurable current
same,Current in X. laevis oocytes,[1],382 ± 57 nA
NC(=O)NCCC[C@H](N)C(=O)O [Citrulline],Current in X. laevis oocytes,[1],498 ± 114 nA
N[C@@H](Cc1c[nH]cn1)C(=O)O [Histidine],"Current in X. laevis oocytes (nA), L-isomer",[1],410 ± 64 nA
"CC(C)C[C@@H](N)C(=O)O [D-Leucine, D-leucine]","Current in X. laevis oocytes (nA), D-isomer",[1],161 ± 25 nA
